Data as given in US20210255193A1, “LYSINE REACTIVE PROBES AND USES THEREOF” (The Scripps Research Institute, priority 2017, published 2021).

Experiments:
STRN3 Striatin-3 = target: T1, STRN3 Striatin-3 (Homo sapiens, UniProt Q13033); assay: competitive isoTOP-ABPP; type: binding
T1 construct: isoTOP-ABPP experiments performed in cell lysates (in vitro); endogenous in cells; host or cells: soluble proteome of human cancer cell lines (MDA-MB-231, Ramos, Jurkat)
T1 sequence (Q13033 1-797): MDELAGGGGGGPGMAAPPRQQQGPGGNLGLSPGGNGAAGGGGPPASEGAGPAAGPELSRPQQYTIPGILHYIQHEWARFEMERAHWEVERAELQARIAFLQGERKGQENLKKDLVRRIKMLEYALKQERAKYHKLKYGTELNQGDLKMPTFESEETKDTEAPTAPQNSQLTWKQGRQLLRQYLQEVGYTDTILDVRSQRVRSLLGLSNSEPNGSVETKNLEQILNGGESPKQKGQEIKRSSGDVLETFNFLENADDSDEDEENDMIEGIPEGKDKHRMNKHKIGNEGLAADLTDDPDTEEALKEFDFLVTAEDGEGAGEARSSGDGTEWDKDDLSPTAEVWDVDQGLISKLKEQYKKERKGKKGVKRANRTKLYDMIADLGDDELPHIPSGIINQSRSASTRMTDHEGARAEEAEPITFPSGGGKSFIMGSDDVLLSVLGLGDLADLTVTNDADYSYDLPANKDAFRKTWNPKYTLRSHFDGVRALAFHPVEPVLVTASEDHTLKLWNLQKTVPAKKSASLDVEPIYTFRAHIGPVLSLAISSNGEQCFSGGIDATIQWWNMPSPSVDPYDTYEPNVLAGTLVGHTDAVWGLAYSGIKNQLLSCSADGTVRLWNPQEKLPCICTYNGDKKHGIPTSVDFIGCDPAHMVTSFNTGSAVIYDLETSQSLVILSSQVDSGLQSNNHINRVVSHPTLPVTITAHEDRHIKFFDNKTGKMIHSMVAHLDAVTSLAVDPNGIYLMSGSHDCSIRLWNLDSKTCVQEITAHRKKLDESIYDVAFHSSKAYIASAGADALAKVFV
Procedure, shortened: (§1)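 Lysine engagement is reported as R, the MS1 peak-area ratio of heavy-tagged DMSO to light-tagged compound samples. Final fragment concentrations were 50 μM for activated esters and 100 μM for guanidinylating agents; STP-alkyne probe 0.1 mM, 1 h.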

[1] = target: T2, GBAS Protein NipSnap homolog 2 (Homo sapiens, UniProt O75323); assay: competitive isoTOP-ABPP; type: binding
T2 construct: isoTOP-ABPP experiments performed in cell lysates (in vitro); endogenous in cells; host or cells: MDA-MB-231 soluble lysate
T2 sequence (O75323 24-286): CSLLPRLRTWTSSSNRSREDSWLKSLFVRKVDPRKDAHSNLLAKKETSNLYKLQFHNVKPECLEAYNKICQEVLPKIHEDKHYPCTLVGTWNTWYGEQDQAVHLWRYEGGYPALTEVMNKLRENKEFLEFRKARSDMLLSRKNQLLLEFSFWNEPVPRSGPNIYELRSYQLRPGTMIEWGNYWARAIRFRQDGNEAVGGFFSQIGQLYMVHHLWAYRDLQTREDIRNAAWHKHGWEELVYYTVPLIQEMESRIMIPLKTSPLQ
Procedure, shortened: as §1

| SMILES | isoTOP-ABPP ratio, lysine Q13033_K755 (STRN3 Striatin-3; 50 uM_231_sol_in vitro) | isoTOP-ABPP ratio, lysine O75323_K75 ([1]; 50 uM_231_sol_in vitro) | isoTOP-ABPP ratio, lysine Q13033_K755 (STRN3 Striatin-3; 100 uM_231_sol_in vitro) | isoTOP-ABPP ratio, lysine O75323_K75 ([1]; 100 uM_231_sol_in vitro) |
| --- | --- | --- | --- | --- |
| N#Cc1ccc(C(=O)Oc2ccc([N+](=O)[O-])cc2[N+](=O)[O-])cc1 [fragment 44, 2,4-Dinitrophenyl 4-cyanobenzoate] | 1.0 | 1.1 |  |  |
| O=C(CCc1ccc2c(c1)OCO2)Oc1ccc([N+](=O)[O-])cc1[N+](=O)[O-] [fragment 45, 2,4-Dinitrophenyl 3-(benzo[d][1,3]dioxol-5-yl)propanoate] | 1.3 | 5.0 |  |  |
| O=C(ON1C(=O)CCC1=O)c1cc(C(F)(F)F)cc(C(F)(F)F)c1 [fragment 46, 3,5-Bis(trifluoromethyl)benzoic acid NHS ester] | 11.4 | 0.9 |  |  |
| O=C(Oc1c(F)c(F)c(C(F)(F)F)c(F)c1F)c1cc(C(F)(F)F)cc(C(F)(F)F)c1 [fragment 47, 2,3,5,6-Tetrafluoro-4-(trifluoromethyl)phenyl 3,5-bis(trifluoromethyl)benzoate] | 0.9 | 1.0 |  |  |
| O=C(Oc1c(F)c(F)cc(F)c1F)c1cc(C(F)(F)F)cc(C(F)(F)F)c1 [fragment 48, 2,3,5,6-Tetrafluorophenyl 3,5-bis(trifluoromethyl)benzoate] | 1.2 | 0.9 |  |  |
| COC(=O)NC(=NC(=O)OCC1c2ccccc2-c2ccccc21)n1cccn1 [fragment 49, N-Methoxycarbonyl-N′-9-fluorenylmethoxycarbonyl-pyrazole-1-carboxamidine] |  |  | 1.8 | 1.7 |
| CC(C)(C)OC(=O)N=C(NC(=O)OC(C)(C)C)n1cccn1 [fragment 50, reference compound] |  |  | 1.2 | 1.3 |
| NC(=O)c1cc(C(F)(F)F)cc(C(F)(F)F)c1 [fragment 51, reference compound] | 0.9 | 0.9 |  |  |
